This assay concerns the target human FLAP (Homo sapiens (Human), UniProt P20292). Nature of the assay: FLAP binding assay (HTRF format). Particulars: human FLAP wild type membranes, HTRF format; Table 6 (additional runs). Here is the method:
The ability of the compounds of the present invention to treat a FLAP-mediated disease and/or disorder, or associated symptoms or complications thereof, was determined using the following procedures. Binding assay data represent the average value obtained from two different assay plates, with samples run in duplicate on each plate. Human whole blood assay data represent a single replicate on an assay plate using whole blood from at least one healthy donor.
Data are expressed as a HTRF ratio.

As a reminder, the Ki is a dissociation constant, usually derived from enzyme kinetics or from competition with a known ligand. Low readings indicate a stronger hold on the target, high ones a looser hold on the target.

human FLAP, sequence (P20292 whole entry): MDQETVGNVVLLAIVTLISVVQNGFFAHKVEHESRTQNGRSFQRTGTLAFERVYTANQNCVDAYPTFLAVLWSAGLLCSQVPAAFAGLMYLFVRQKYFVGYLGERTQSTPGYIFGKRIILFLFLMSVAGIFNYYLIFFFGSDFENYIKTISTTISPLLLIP

Compound `N#Cc1cccnc1Oc1c(C2CCC2)ccc(-c2cnc(N)cn2)c1F` [Example 110, 2-[3-(5-Aminopyrazin-2-yl)-6-cyclobutyl-2-fluorophenoxy]pyridine-3-carbonitrile] showed an inhibition constant Ki of 2.6 nM. In other words, the single-digit nanomolar range. In the case of `CCc1ccc(-c2cnc(N)cn2)c(F)c1O` [Example 333, 3-(5-Aminopyrazin-2-yl)-6-ethyl-2-fluorophenol], the inhibition constant Ki came out at 421 nM. The same measure for `N#Cc1cccc(Oc2c(C3CCC3)ccc(-c3cnc(N)cn3)c2F)n1` [Example 111, 6-[3-(5-Aminopyrazin-2-yl)-6-cyclobutyl-2-fluorophenoxy]pyridine-2-carbonitrile]: 2.4 nM.

Consider `Nc1cnc(-c2ccc(C3CCC3)c(OCc3ccccc3C(F)(F)F)c2F)cn1` [Compound 3, 5-(4-Cyclobutyl-2-fluoro-3-{[2-(trifluoromethyl)benzyl]oxy}phenyl)pyrazin-2-amine], for which the affinity corresponds to a Ki of 118 nM.

With `N#Cc1ccc(Oc2c(C3CCC3)ccc(-c3cnc(N)cn3)c2F)cn1` [Example 108, 5-[3-(5-Aminopyrazin-2-yl)-6-cyclobutyl-2-fluorophenoxy]pyridine-2-carbonitrile], the affinity, expressed as Ki, was 28.1 nM.

In turn, `Nc1cnc(-c2ccc(C3CCC3)c(Oc3cnc(C(F)(F)F)cn3)c2F)cn1` [Example 105, 5-(4-Cyclobutyl-2-fluoro-3-{[5-(trifluoromethyl)pyrazin-2-yl]oxy}phenyl)pyrazin-2-amine] returned an inhibitory constant (Ki) of 39.4 nM. The value for `Nc1cnc(-c2ccc(C3CCC3)c(OCc3ccc(F)cc3)c2F)cn1` [Compound 28, 5-{4-Cyclobutyl-2-fluoro-3-[(4-fluorobenzyl)oxy]phenyl}pyrazin-2-amine] was 66.2 nM; that for `CS(=O)(=O)N1CCC(COc2c(C3CCC3)ccc(-c3cnc(N)cn3)c2F)CC1` [Example 68, 5-(4-Cyclobutyl-2-fluoro-3-{[1-(methylsulfonyl)piperidin-4-yl]methoxy}phenyl)pyrazin-2-amine] was 136 nM; that for `Nc1cnc(-c2ccc(C3CCC3)c(Oc3ncccc3Cl)c2F)cn1` [Example 122] was 3.7 nM. Consider `Nc1cnc(-c2ccc(C3CCC3)c(OCc3ccccc3)c2)cn1` [Example 217, 5-[3-(Benzyloxy)-4-cyclobutylphenyl]pyrazin-2-amine], for which affinity was put at a Ki of 1040 nM. The same measure for `Nc1cnc(-c2ccc(C3CCC3)c(OCc3cc(Cl)ccc3Cl)c2F)cn1` [Compound 38, 5-{4-Cyclobutyl-3-[(2,5-dichlorobenzyl)oxy]-2-fluorophenyl}pyrazin-2-amine]: roughly 250 nM; for `N#Cc1cccc(COc2c(C3CCC3)ccc(-c3cnc(N)cn3)c2F)c1` [Compound 16, 3-{[3-(5-Aminopyrazin-2-yl)-6-cyclobutyl-2-fluorophenoxy]methyl}benzonitrile]: 19.9 nM. The value for `Cc1nc(COc2c(C3CCC3)ccc(-c3cnc(N)cn3)c2F)no1` [Example 70, 5-{4-Cyclobutyl-2-fluoro-3-[(5-methyl-1,2,4-oxadiazol-3-yl)methoxy]phenyl}pyrazin-2-amine] was 34.2 nM.

Consider `Nc1cnc(-c2ccc(C3CCC3)c(Oc3cc(C4CC4)ncn3)c2F)cn1` [Example 141, 5-{4-Cyclobutyl-3-[(6-cyclopropylpyrimidin-4-yl)oxy]-2-fluorophenyl}pyrazin-2-amine], for which the Ki stood at 5.5 nM.

Compound `Cc1cc(C)nc(Oc2c(C3CCC3)ccc(-c3cnc(N)cn3)c2F)n1` [Example 89, 5-{4-Cyclobutyl-3-[(4,6-dimethylpyrimidin-2-yl)oxy]-2-fluorophenyl}pyrazin-2-amine] showed an inhibition constant Ki of 5.3 nM.

For the compound `Nc1cnc(-c2ccc(C3CCC3)c(OCc3cccc(C(=O)O)c3)c2F)cn1` [Compound 4, 3-{[3-(5-Aminopyrazin-2-yl)-6-cyclobutyl-2-fluorophenoxy]methyl}benzoic acid], the inhibition constant Ki is 5.8 nM.

On to `CS(=O)(=O)c1ccc(COc2c(C3CCC3)ccc(-c3cnc(N)cn3)c2F)cc1` [Compound 7, 5-(4-Cyclobutyl-2-fluoro-3-{[4-(methylsulfonyl)benzyl]oxy}phenyl)pyrazin-2-amine], for which the Ki amounted to 7.4 nM. This Ki and that of the compound before are within 1.5-fold of each other. `Nc1cnc(-c2ccc(C3CCC3)c(OCC3CCC3)c2F)cn1` [Example 82, 5-[4-Cyclobutyl-3-(cyclobutylmethoxy)-2-fluorophenyl]pyrazin-2-amine] yielded a Ki of 208 nM. This Ki lies about 28-fold higher than the previous one. The same measure for `Nc1cnc(-c2ccc(C3CCC3)c(Oc3ccnc(Cl)n3)c2F)cn1` [Example 137, 5-{3-[(2-Chloropyrimidin-4-yl)oxy]-4-cyclobutyl-2-fluorophenyl}pyrazin-2-amine]: 4.3 nM; for `COc1ccnc(Oc2c(C3CCC3)ccc(-c3cnc(N)cn3)c2F)n1` [Example 93, 5-{4-Cyclobutyl-2-fluoro-3-[(4-methoxypyrimidin-2-yl)oxy]phenyl}pyrazin-2-amine]: 5.2 nM. The same measure for `Nc1cnc(-c2ccc(C3CCCCC3)c(Oc3ncccn3)c2F)cn1` [Example 320, 5-(4-Cyclohexyl-2-fluoro-3-(pyrimidin-2-yloxy)phenyl)pyrazin-2-amine]: 36.5 nM.

Compound `CCOC(=O)c1ccc(COc2c(C3CCC3)ccc(-c3cnc(N)cn3)c2F)o1` [Example 73, Ethyl 5-{[3-(5-aminopyrazin-2-yl)-6-cyclobutyl-2-fluorophenoxy]methyl}furan-2-carboxylate] came in with an inhibitory constant (Ki) of 275 nM. Consider `Nc1cnc(-c2ccc(C3CCC3)c(OCc3ccc(CC(=O)O)cc3)c2F)cn1` [Compound 23, (4-{[3-(5-Aminopyrazin-2-yl)-6-cyclobutyl-2-fluorophenoxy]methyl}phenyl)acetic acid], for which the affinity, expressed as Ki, was 3.7 nM. The value for `Nc1cnc(-c2ccc(C3CCC3)c(OCc3ccccc3C(=O)O)c2F)cn1` [Example 46, 2-{[3-(5-Aminopyrazin-2-yl)-6-cyclobutyl-2-fluorophenoxy]methyl}benzoic acid] was 6.9 nM.

In turn, `Nc1cnc(-c2ccc(C3CCC3)c(OCc3ccc(C(=O)O)cc3)c2F)cn1` [Compound 5, 4-{[3-(5-Aminopyrazin-2-yl)-6-cyclobutyl-2-fluorophenoxy]methyl}benzoic acid] came in with an inhibition constant Ki of 10.2 nM. The value for `CC(C)(C)c1ccc(-c2cnc(N)cn2)cc1OCc1ccccc1` [Example 215, 5-[3-(Benzyloxy)-4-tert-butylphenyl]pyrazin-2-amine] was 705 nM.

Turning to `Nc1cnc(-c2ccc(C3CCC3)c(Oc3ccnc(C(F)(F)F)n3)c2F)cn1` [Example 124, 5-(4-Cyclobutyl-2-fluoro-3-{[2-(trifluoromethyl)pyrimidin-4-yl]oxy}phenyl)pyrazin-2-amine], the Ki stood at 2.8 nM. Against the preceding compound, the Ki is about 250-fold lower. The value for `Cc1cc(N)nc(Oc2c(C3CCC3)ccc(-c3cnc(N)cn3)c2F)n1` [Example 86, 2-[3-(5-Aminopyrazin-2-yl)-6-cyclobutyl-2-fluorophenoxy]-6-methylpyrimidin-4-amine] was 6.2 nM. The value for `Nc1cnc(-c2ccc(C3CCC3)c(Oc3nccc(-c4cccs4)n3)c2F)cn1` [Example 91, 5-{4-Cyclobutyl-2-fluoro-3-[(4-thiophen-2-ylpyrimidin-2-yl)oxy]phenyl}pyrazin-2-amine] was 0.8 nM; that for `Nc1cnc(-c2ccc(Cl)c(OCc3ccccc3)c2F)cn1` [Example 216, 5-[3-(Benzyloxy)-4-chloro-2-fluorophenyl]pyrazin-2-amine] was 714 nM; that for `NC(=O)c1cccc(COc2c(C3CCC3)ccc(-c3cnc(N)cn3)c2F)c1` [Compound 17, 3-{[3-(5-Aminopyrazin-2-yl)-6-cyclobutyl-2-fluorophenoxy]methyl}benzamide] was 12.5 nM.

For the compound `CCc1ccc(-c2cnc(N)cn2)c(F)c1Oc1ncccn1` [Example 316, 5-[4-Ethyl-2-fluoro-3-(pyrimidin-2-yloxy)phenyl]pyrazin-2-amine], the Ki was 1360 nM. This Ki is about 110-fold higher than that of the compound before.

`Cc1nccc(Oc2c(C3CCC3)ccc(-c3cnc(N)cn3)c2F)n1` [Example 134, 5-{4-Cyclobutyl-2-fluoro-3-[(2-methylpyrimidin-4-yl)oxy]phenyl}pyrazin-2-amine] had a Ki of 4.6 nM.

As to `COc1cc(Oc2c(C(C)(C)C)ccc(-c3cnc(N)cn3)c2F)ncn1` [Example 204, 5-{4-tert-Butyl-2-fluor-3-[(6-methoxypyrimidin-4-yl)oxy]phenyl}pyrazin-2-amine], affinity was put at a Ki of 8.5 nM. The value for `N#Cc1ncccc1Oc1c(C2CCC2)ccc(-c2cnc(N)cn2)c1F` [Example 112, 3-[3-(5-Aminopyrazin-2-yl)-6-cyclobutyl-2-fluorophenoxy]pyridine-2-carbonitrile] was 13.6 nM; that for `Nc1cnc(-c2ccc(C3CCC3)c(OCc3ccc(F)c(F)c3)c2F)cn1` [Compound 33, 5-{4-Cyclobutyl-3-[(3,4-difluorobenzyl)oxy]-2-fluorophenyl}pyrazin-2-amine] was roughly 250 nM; that for `CC(C)c1ccnc(Oc2c(C3CCC3)ccc(-c3cnc(N)cn3)c2F)n1` [Example 90, 5-(4-Cyclobutyl-2-fluoro-3-{[4-(1-methylethyl)pyrimidin-2-yl]oxy}phenyl)pyrazin-2-amine] was 53.8 nM. `NC(=O)c1ccccc1COc1c(C2CCC2)ccc(-c2cnc(N)cn2)c1F` [Compound 19, 2-{[3-(5-Aminopyrazin-2-yl)-6-cyclobutyl-2-fluorophenoxy]methyl}benzamide] gave a Ki of 3.8 nM. Compared with the last compound, the Ki is about 14-fold lower. The same measure for `CC(=O)c1ccc(COc2c(C3CCC3)ccc(-c3cnc(N)cn3)c2F)cc1` [Compound 12, 1-(4-{[3-(5-Aminopyrazin-2-yl)-6-cyclobutyl-2-fluorophenoxy]methyl}phenyl)ethanone]: roughly 89.9 nM; for `CS(=O)(=O)c1ccnc(Oc2c(C3CCC3)ccc(-c3cnc(N)cn3)c2F)n1` [Example 95, 5-(4-Cyclobutyl-2-fluoro-3-{[4-(methylsulfonyl)pyrimidin-2-yl]oxy}phenyl)pyrazin-2-amine]: 4.7 nM.

`Nc1cnc(-c2ccc(C3CCC3)c(OCC3CC3)c2F)cn1` [Example 72, 5-[4-Cyclobutyl-3-(cyclopropylmethoxy)-2-fluorophenyl]pyrazin-2-amine]: the Ki came out at 23.7 nM. This Ki is about 5-fold higher than that of the compound before.

For the origin of these results see patent US9732093B2, “FLAP modulators” (JANSSEN PHARMACEUTICA NV, priority 2013, dated 2017).
